{
  "source": "patent US9795675B2",
  "about": "“Light-activatable polymeric nanoparticles” (CNC—CENTRO DE NEUROCIÊNCIAS E BIOLOGIA CELULAR, priority 2013, dated 2017)",
  "key": {"U937 cells [1]": {"test_system": "U937 cells", "experiment": "NP uptake in the presence of endocytosis inhibitors (FACS)", "format": "cell-based, human", "conditions": "dynasor 80 μM; TRITC-labelled NPs 5 μg/mL", "protocol": "(§1) Uptake mechanisms analysis. For determining the uptake mechanism(s), we first perform NP uptake assays in the presence of endocytosis inhibitors. U937 cells were cultured on 24 well plates (1×10^5 cells/well) and inhibited by one of the following chemicals during 30 min before adding a suspension of TRITC-labelled NPs (5 μg/mL): dynasor (80 μM), cytochalasin D (10 μM), nocodazole (50 uM), filipin III (100 μM) and polyinosinic acid (100 μg/mL). The inhibitor concentrations were based in values reported in literature and further validated by us to have no cytotoxic effect over the period of the assay (6 h), as confirmed by ATP assay. The incubation of the cells with NPs for different times was performed in the presence of the inhibitor. As controls, we used cells without NPs and cells incubated with NPs without inhibitor. At the end of each time point, cells were centrifuged at 1300 rpm, 2° C. for 5 min with PBS, washed one time with cold trypan blue solution (200 μL; 600 μg/mL), re-washed 3 times with cold PBS and then resuspended in PBS containing 2.5% FBS (500 μL) for FACS analysis. A total of 10,000 events were obtained per measurement. To validate the inhibitory activity of dynasor we performed uptake studies of FITC-labeled transferrin, known to selectively enter cells via clatherin-mediated endocytosis. […] Cells were then evaluated as before."}, "U937 cells [2]": {"test_system": "U937 cells", "experiment": "Uptake of FITC-labeled transferrin (validation of dynasor)", "format": "cell-based, human", "conditions": "dynasor 80 μM, 30 min pre-incubation", "protocol": "as §1"}, "patients": {"test_system": "patients", "conditions": "cited from earlier work"}, "K562, NB4 and U937 cells": {"test_system": "K562, NB4 and U937 cells", "experiment": "Retinoic acid uptake assay ([3H]RA, scintillation counting)", "format": "cell-based, human", "protocol": "Experiments were initiated by the addition of medium containing [^3H]RA (1 μM and 10 μM) and [^3H]RA-NPs (1 μg/mL and 10 μg/mL) to cultures (60,000 cells/condition, 24-well plate, 1 mL) of K562, NB4 and U937 cells. After experimental incubations with medium containing [^3H]RA and [^3H]RA-NPs for 4, 24 and 72 hours, cells were collected to eppendorfs, washed with PBS by centrifugation (1500 rpm, 5 min, 2 times) to remove non-internalized [^3H]RA and then resuspend in 100 μL of lysis buffer (see above) and kept on ice until scintillation counting procedure.\nThe titrium content of the samples was assayed by adding 100 μL aliquot of the samples to 1 mL liquid scintillation fluid (Packard Ultima Gold) and counted in a TriCarb 2900 TR Scintillation analyzer (Perkin Elmer). All conditions were performed in triplicate."}},
  "data": [
    {"smiles": "O=C(N/N=C/c1ccc(O)c(O)c1)c1cc2ccccc2cc1O", "note": "[Dynasore]", "values": [
      {"measurement": "reduction of the uptake of NPs compared to control cells", "setting": "U937 cells [1]", "value": 90, "unit": "%"},
      {"measurement": "internalisation of FITC-labeled transferrin", "setting": "U937 cells [2]", "value": "inhibits the internalisation of transferrin"}
    ]},
    {"smiles": "CC1=C(/C=C/C(C)=C/C=C/C(C)=C/C(=O)O)C(C)(C)CCC1", "note": "[RA, retinoic acid]", "values": [
      {"measurement": "patients receiving RA who develop serious complications including the differentiation syndrome", "setting": "patients; human, in vivo", "value": "approximately 25%"},
      {"measurement": "patients in whom the dose of RA leads to hyperleukocytosis and respiratory distress syndrome", "setting": "patients; up to", "value": "20-30%"},
      {"measurement": "time of peak RA uptake", "setting": "K562, NB4 and U937 cells", "value": 24, "unit": "h"}
    ]},
    {"smiles": "CC1=C(/C=C/C(C)=C/C=C/C(C)=C/C(=O)O)C(C)(C)CCC1", "note": "[[^3H]RA]", "values": [
      {"measurement": "uptake yield of [^3H]RA", "setting": "K562, NB4 and U937 cells; [^3H]RA 1 and 10 uM or [^3H]RA-NPs 1 and 10 ug/mL, for 4 hours, measured after 24 and 72 hours", "value": "below 2%"}
    ]}
  ]
}
